Among the data in ChEMBL document CHEMBL1157129, “Synthesis and antiprotozoal activity of 2,5-bis[amidinoaryl]thiazoles” (Bioorg Med Chem, 2010) are IC50, Survival and Activity values, retold here.

Active and inactive are the calls of the source. The rule behind the calls is not given here. Where only a bound is given, the exact number is not on record here.

In general, IC50 refers to the concentration that inhibits the measured activity by half. The low end stands for greater potency, the high end for weaker potency.

Test [1] relates to Trypanosoma brucei rhodesiense. As to the kind of experiment: Antitrypanosomal activity against Trypanosoma brucei rhodesiense STIB900. The format is functional, organism-based.
A further test has as its system Plasmodium falciparum. Kind of test: Antiplasmodial activity against Plasmodium falciparum K1. It is filed as functional, organism-based.
Test [2] deals with Trypanosoma brucei rhodesiense. Kind of test: Antitrypanosomal activity against Trypanosoma brucei rhodesiense STIB900 in infected mouse model assessed as host survival time at 5 mg/kg, ip for 4 days. The format is functional. To be noted: route intraperitoneal.
In test [3] the test system is Trypanosoma brucei rhodesiense. Kind of test: Antitrypanosomal activity against Trypanosoma brucei rhodesiense STIB900 in infected mouse model assessed as parasitemia cure in host at 5 mg/kg, ip for 4 days. It is filed as functional, organism-based. Also noted: dose 5 mg/kg.
Another test has as its system L6. Kind of test: Cytotoxicity against rat L6 cells. It is filed as cell-based.
The subject of test [4] is Trypanosoma brucei rhodesiense. Kind of test: Antitrypanosomal activity against Trypanosoma brucei rhodesiense STIB900 in infected mouse model assessed as host survival time at 25 mg/kg, po for 4 days. The format is functional.
Test [5] deals with Trypanosoma brucei rhodesiense. Kind of test: Antitrypanosomal activity against Trypanosoma brucei rhodesiense STIB900 in infected mouse model assessed as parasitemia cure in host at 25 mg/kg, po for 4 days. Also noted: dose 25 mg/kg. The format is functional, organism-based.

As for `N=C(N)c1ccc(-c2ccc(-c3ccc(C(=N)N)cc3)s2)cc1`, the IC50 in test [1] stood at 3 nM; in the test on Plasmodium falciparum, 13.8 nM. Moreover, in test [2], the Survival was above 48.75 days.

Regarding `Cl.Cl.N=C(N)c1ccc(-c2cnc(-c3ccc(C(=N)N)cn3)s2)cc1`, the half-inhibitory concentration (IC50) in test [1] worked out at 16 nM; with Plasmodium falciparum, 12.5 nM; with L6, 102000 nM. The outcome in test [3] was inactive. The Survival in test [2] stood at 30.25 days.

Turning to `Cl.Cl.N/C(=N\O)c1ccc(-c2cnc(-c3ccc(/C(N)=N\O)nc3)s2)cn1`, the Survival in test [4] worked out at 24 days.

As for `N=C(N)c1ccc(-c2ccc(-c3ccc(C(=N)N)cc3)o2)cc1` [FURAMIDINE], half-maximal inhibition in the test with L6 (IC50) was put at 6500 nM. In addition, the Survival in test [2] is above 46 days.

For the compound `Cl.Cl.N=C(N)c1ccc(-c2cnc(-c3ccc(C(=N)N)cn3)s2)nc1`, the values for the IC50 (in test [1]; with Plasmodium falciparum; in the test on L6) were 176 nM, 24.6 nM and above 195000 nM, respectively. Further, in test [3], the outcome was inactive. Moreover, in test [2], the Survival turned out to be 21.5 days.

As to `Cl.Cl.N/C(=N\O)c1ccc(-c2cnc(-c3ccc(/C(N)=N\O)cn3)s2)nc1`, the Survival in test [4] worked out at 9 days. The outcome in test [5] was inactive.

For the compound `Cl.Cl.N=C(N)c1ccc(-c2cnc(-c3ccc(C(=N)N)cc3)s2)cc1`, the IC50 was 4 nM in test [1] and 2 nM with Plasmodium falciparum. Besides, the Survival in test [2] was above 44.5 days.

Regarding `CO/N=C(/N)c1ccc(-c2cnc(-c3ccc(/C(N)=N\OC)cc3)s2)cc1.Cl.Cl`, the Survival in test [4] is 41 days. Further, the outcome in test [5] was inactive.

On to `Cl.Cl.N=C(N)c1ccc(-c2ncc(-c3ccc(C(=N)N)nc3)s2)nc1`, for which the IC50 in test [1] worked out at 38 nM; in the test on Plasmodium falciparum it was 13 nM; with L6 it was 37400 nM. For the same compound, in test [3], the result was inactive. Besides, in test [2], the Survival came to 29.25 days.

For the compound `Cl.Cl.N/C(=N\O)c1ccc(-c2ncc(-c3ccc(/C(N)=N\O)nc3)s2)cc1`, the Survival in test [4] stood at 36.8 days. Also, the result in test [5] was inactive.

As to `Cl.Cl.N=C(N)c1ccc(-c2cnc(-c3ccc(C(=N)N)nc3)s2)cn1`, the IC50 was 6 nM in test [1], 1.1 nM in the test on Plasmodium falciparum and 1400 nM in the test with L6. The outcome in test [3] was inactive. In addition, the Survival in test [2] was determined as 50.5 days.

Take `Cl.Cl.N/C(=N/O)c1ccc(-c2cnc(-c3ccc(/C(N)=N\O)cc3)s2)cc1`: the Survival in test [4] worked out at 35 days. Besides, in test [5], the result was inactive.

Consider `CO/N=C(\N)c1ccc(-c2cnc(-c3ccc(/C(N)=N\OC)cn3)s2)cc1.Cl.Cl`, for which, in test [4], the Survival worked out at 35 days. For the same compound, the outcome in test [5] was inactive.

Consider `CO/N=C(\N)c1ccc(-c2cnc(-c3ccc(/C(N)=N\OC)nc3)s2)cn1.Cl.Cl`, for which, in test [4], the Survival was found to be 9 days.

For the compound `N=C(N)c1ccc(OCCCCCOc2ccc(C(=N)N)cc2)cc1` [PENTAMIDINE], the Survival in test [2] is 45 days.

With `CONC(=N)c1ccc(-c2ccc(-c3ccc(C(=N)NOC)cc3)o2)cc1` [PAFURAMIDINE], in test [3], the result was inactive. For the same compound, the values for the Survival in test [4] and in test [2] were above 60 days and 30 days, respectively. Besides, in test [5], the result was Active.

On to `Cl.Cl.N/C(=N\O)c1ccc(-c2cnc(-c3ccc(/C(N)=N/O)nc3)s2)cc1`, for which the Survival in test [4] worked out at 37.5 days. The outcome in test [5] was inactive.

As for `CO/N=C(\N)c1ccc(-c2ccc(-c3ccc(/C(N)=N/OC)cn3)o2)cc1`, in test [3], the outcome was Active. Further, the Survival in test [4] and in test [2] was above 60 days each time.

For the compound `Cl.Cl.N=C(N)c1ccc(-c2cnc(-c3ccc(C(=N)N)nc3)s2)cc1`, the results for the IC50 (in test [1]; in the test with Plasmodium falciparum; with L6) were 4 nM, 2.5 nM and 1800 nM, respectively. In addition, the outcome in test [3] was inactive. In test [2], the Survival is 44.5 days.

For `N=C(N)c1ccc(-c2ccc(-c3ccc(C(=N)N)cn3)o2)cc1`, in test [2], the Survival was above 54.5 days.

Turning to `CO/N=C(\N)c1ccc(-c2cnc(-c3ccc(/C(N)=N\OC)cn3)s2)nc1.Cl.Cl`, the Survival in test [4] is 9 days. For the same compound, the outcome in test [5] was inactive.

For the compound `Cl.Cl.N=C(N)c1ccc(-c2ncc(-c3ccc(C(=N)N)nc3)s2)cc1`, the IC50 in test [1] is 6 nM; with Plasmodium falciparum, 2.4 nM; in the test on L6, 40200 nM. In addition, in test [3], the result was inactive. For the same compound, the Survival in test [2] is above 36 days.

Take `CO/N=C(\N)c1ccc(-c2cnc(-c3ccc(/C(N)=N/OC)nc3)s2)cc1.Cl`: the Survival in test [4] amounted to 42.8 days. Also, the result in test [5] was inactive.

Turning to `Cl.Cl.N/C(=N\O)c1ccc(-c2cnc(-c3ccc(/C(N)=N\O)cn3)s2)cc1`, the Survival in test [4] amounted to 24 days. Moreover, the outcome in test [5] was inactive.
